Results taken from US9956187B2 (priority 2014, dated 2018).
Counter-ions that a name gives are not always drawn.

Key:
human cloned NET = target: T1, human cloned NET (Homo sapiens, UniProt P23975); assay: Norepinephrine reuptake assay in HEK 293 cells; type: cell-based; details: mean±SE
T1 construct: expressed in transfected cells
Procedure: In brief, Human Embryonic Kidney 293 cells were plated in Poly-L-Lys (PLL) coated 384-well black clear bottom cell culture plates in DMEM+1% dFBS, at a density of 15,000 cells per well in a total volume of 40 μl. The cells were incubated for a minimum of 6 hours before use in the assays. The medium was removed and 20 μL of assay buffer (20 mM HEPES, 1×HBSS, pH 7.40) was added, followed by 5 μL of 5× drug solutions. The plate was incubated at 37° C. for 30 min. After the incubation, 25 μL of dye solution was added and fluorescence intensity was measured after […] at 37° C., using FlexStation II (bottom read mode, Excitation at 440 nm, Emission at 520 nm with 510 nm cut-off) from the Molecular Devices. […] The half maximal inhibitory concentration were determined and expressed as pIC50 (pIC50=−log (IC50)).

Alpha1A = target: T2, Alpha1A (Homo sapiens, UniProt P35348); assay: Primary radioligand binding screen
T2 construct: expressed in transfected cells
T2 sequence (P35348 whole entry): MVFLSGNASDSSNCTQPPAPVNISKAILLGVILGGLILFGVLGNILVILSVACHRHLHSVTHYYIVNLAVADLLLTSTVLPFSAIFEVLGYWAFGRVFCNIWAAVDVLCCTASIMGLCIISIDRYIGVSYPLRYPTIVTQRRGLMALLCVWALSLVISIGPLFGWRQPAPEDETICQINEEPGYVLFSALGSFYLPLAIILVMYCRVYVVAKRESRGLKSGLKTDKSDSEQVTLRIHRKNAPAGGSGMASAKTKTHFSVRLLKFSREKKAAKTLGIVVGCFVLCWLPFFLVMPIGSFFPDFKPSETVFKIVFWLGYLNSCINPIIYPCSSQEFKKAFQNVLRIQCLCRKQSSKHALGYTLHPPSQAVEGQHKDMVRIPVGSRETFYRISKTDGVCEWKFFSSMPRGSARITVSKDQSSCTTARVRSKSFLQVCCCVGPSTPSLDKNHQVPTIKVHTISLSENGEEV
Procedure: (§1) Evidence for interaction was based on the inhibition of the reference ligand-binding signal. […] Briefly, 50 μL aliquots of radioactive ligand (5 nM) were added to wells of a 96-well plate, which contained 25 μL of the reference or test ligands. We employed transfected cell lines expressing mainly human (unless otherwise specified) recombinant receptors, monoamine transporters, or ion channels for crude membrane preparation. Detailed information about our membrane preparation is well known in the art and can be obtained from publicly available protocol online. Crude membrane fractions containing the receptors were resuspended in standard binding buffer and 50 μL aliquots added to each well. The reactions were incubated at room temperature for 1.5 hours to allow for radioligand binding equilibration. Bound radioactivity was harvested by rapid filtration through a 0.3% polyethyleneimine-treated, 96-well filter mats using a 96-well Filtermate harvester. The dried filters were treated with melted scintillant and a Microbeta scintillation counter was utilized to measure the radioactivity retained on the filter.

5-HT7 = target: T3, 5-HT7 (Homo sapiens, UniProt P34969); assay: Primary radioligand binding screen
T3 construct: expressed in transfected cells
Procedure: as §1

Alpha2C = target: T4, Alpha2C (Homo sapiens, UniProt P18825); assay: Primary radioligand binding screen
T4 construct: expressed in transfected cells
Procedure: as §1

M2 = target: T5, M2 (Homo sapiens, UniProt P08172); assay: Primary radioligand binding screen
T5 construct: expressed in transfected cells
T5 sequence (P08172 whole entry): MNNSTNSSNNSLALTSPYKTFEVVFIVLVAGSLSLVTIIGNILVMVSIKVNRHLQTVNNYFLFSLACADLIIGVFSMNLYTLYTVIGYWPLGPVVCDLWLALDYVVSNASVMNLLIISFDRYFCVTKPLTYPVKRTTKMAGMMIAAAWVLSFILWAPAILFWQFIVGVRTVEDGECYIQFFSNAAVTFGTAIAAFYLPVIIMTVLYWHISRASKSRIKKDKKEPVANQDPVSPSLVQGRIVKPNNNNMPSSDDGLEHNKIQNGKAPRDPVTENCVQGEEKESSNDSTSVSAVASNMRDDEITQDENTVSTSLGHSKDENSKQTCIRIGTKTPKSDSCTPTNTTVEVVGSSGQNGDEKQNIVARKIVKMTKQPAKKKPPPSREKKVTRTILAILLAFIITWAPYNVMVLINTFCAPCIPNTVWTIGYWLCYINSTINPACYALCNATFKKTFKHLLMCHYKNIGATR
Procedure: as §1

M5 = target: T6, M5 (Homo sapiens, UniProt P08912); assay: Primary radioligand binding screen
T6 construct: expressed in transfected cells
T6 sequence (P08912 whole entry): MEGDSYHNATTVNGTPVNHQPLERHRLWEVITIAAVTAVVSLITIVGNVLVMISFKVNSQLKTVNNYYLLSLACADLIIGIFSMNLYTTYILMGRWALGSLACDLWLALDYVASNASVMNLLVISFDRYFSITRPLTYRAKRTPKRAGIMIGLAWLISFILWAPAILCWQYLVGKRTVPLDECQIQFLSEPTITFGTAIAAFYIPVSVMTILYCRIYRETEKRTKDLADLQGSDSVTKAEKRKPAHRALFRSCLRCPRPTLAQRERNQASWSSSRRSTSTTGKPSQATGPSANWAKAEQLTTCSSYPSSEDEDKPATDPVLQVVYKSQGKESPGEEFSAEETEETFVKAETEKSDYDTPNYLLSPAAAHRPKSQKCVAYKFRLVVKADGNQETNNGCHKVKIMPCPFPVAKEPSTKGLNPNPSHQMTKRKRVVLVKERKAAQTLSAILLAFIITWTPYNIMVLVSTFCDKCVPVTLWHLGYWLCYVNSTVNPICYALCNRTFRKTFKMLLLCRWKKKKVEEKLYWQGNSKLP
Procedure: as §1

M4 = target: T7, M4 (Homo sapiens, UniProt P08173); assay: Primary radioligand binding screen
T7 construct: expressed in transfected cells
Procedure: as §1

Alpha2B = target: T8, Alpha2B (Homo sapiens, UniProt P18089); assay: Primary radioligand binding screen
T8 construct: expressed in transfected cells
Procedure: as §1

Alpha2A = target: T9, Alpha2A (Homo sapiens, UniProt P08913); assay: Primary radioligand binding screen
T9 construct: expressed in transfected cells
Procedure: as §1

H2 = target: T10, H2 (Homo sapiens, UniProt P25021); assay: Primary radioligand binding screen
T10 construct: expressed in transfected cells
T10 sequence (P25021 whole entry): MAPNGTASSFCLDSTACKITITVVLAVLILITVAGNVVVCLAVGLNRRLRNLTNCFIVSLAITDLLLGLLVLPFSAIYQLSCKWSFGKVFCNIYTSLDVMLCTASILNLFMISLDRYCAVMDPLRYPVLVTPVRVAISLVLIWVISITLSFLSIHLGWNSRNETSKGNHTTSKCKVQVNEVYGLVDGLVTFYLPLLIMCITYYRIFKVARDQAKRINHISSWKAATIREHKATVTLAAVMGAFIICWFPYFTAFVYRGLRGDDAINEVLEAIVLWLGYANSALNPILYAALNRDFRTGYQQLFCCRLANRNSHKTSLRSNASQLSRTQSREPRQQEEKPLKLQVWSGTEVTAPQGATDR
Procedure: as §1

SERT = target: T11, SERT (Homo sapiens, UniProt P31645); assay: Primary radioligand binding screen
T11 construct: expressed in transfected cells
T11 sequence (P31645 whole entry): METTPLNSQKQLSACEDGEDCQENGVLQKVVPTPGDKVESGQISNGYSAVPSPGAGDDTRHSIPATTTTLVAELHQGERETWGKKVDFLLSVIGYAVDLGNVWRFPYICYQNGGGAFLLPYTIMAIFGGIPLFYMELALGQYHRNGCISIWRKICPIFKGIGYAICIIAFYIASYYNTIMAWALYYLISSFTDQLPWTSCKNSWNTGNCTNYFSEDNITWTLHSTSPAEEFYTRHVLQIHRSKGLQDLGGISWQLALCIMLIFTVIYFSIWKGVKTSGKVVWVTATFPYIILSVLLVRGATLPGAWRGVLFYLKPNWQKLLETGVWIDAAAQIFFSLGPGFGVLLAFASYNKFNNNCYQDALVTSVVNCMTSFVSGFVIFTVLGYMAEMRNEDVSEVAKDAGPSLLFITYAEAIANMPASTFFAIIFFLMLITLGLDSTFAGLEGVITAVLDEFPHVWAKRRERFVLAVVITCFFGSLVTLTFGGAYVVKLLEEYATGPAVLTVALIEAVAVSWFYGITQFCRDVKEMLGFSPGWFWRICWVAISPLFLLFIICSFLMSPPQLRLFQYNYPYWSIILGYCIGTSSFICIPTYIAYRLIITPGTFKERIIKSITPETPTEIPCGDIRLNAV
Procedure: as §1

D4 = target: T12, D4 (Homo sapiens, UniProt P21917); assay: Primary radioligand binding screen
T12 construct: expressed in transfected cells
T12 sequence (P21917 whole entry): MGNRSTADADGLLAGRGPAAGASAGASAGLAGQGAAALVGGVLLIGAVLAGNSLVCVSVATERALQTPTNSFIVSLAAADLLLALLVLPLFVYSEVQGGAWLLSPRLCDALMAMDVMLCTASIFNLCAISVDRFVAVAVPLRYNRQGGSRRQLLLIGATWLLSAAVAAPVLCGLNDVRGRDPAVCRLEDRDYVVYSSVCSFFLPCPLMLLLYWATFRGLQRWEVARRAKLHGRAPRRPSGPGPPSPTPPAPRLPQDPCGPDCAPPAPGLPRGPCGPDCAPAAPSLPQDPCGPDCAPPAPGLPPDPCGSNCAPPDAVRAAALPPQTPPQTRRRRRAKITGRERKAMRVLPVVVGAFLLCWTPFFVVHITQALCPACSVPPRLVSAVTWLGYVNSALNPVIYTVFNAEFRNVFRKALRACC
Procedure: as §1

5-HT2C = target: T13, 5-HT2C (Homo sapiens, UniProt P28335); assay: Primary radioligand binding screen
T13 construct: expressed in transfected cells
Procedure: as §1

5-HT1D = target: T14, 5-HT1D (Homo sapiens, UniProt P28221); assay: Primary radioligand binding screen
T14 construct: expressed in transfected cells
T14 sequence (P28221 whole entry): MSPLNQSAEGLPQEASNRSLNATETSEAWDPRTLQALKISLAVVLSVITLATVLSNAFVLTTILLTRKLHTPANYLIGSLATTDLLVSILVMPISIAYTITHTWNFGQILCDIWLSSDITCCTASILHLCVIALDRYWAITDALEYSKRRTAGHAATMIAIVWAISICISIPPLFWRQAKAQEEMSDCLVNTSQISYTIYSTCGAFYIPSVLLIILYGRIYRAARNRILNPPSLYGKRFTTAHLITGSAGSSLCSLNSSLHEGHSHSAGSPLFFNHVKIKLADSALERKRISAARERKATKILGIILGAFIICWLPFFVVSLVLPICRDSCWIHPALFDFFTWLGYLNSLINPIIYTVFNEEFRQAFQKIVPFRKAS
Procedure: as §1

D2 = target: T15, D2 (Homo sapiens, UniProt P14416); assay: Primary radioligand binding screen
T15 construct: expressed in transfected cells
Procedure: as §1

5-HT6 = target: T16, 5-HT6 (Homo sapiens, UniProt P50406); assay: Primary radioligand binding screen
T16 construct: expressed in transfected cells
Procedure: as §1

Beta3 = target: T17, Beta3 (Homo sapiens, UniProt P13945); assay: Primary radioligand binding screen
T17 construct: expressed in transfected cells
T17 sequence (P13945 whole entry): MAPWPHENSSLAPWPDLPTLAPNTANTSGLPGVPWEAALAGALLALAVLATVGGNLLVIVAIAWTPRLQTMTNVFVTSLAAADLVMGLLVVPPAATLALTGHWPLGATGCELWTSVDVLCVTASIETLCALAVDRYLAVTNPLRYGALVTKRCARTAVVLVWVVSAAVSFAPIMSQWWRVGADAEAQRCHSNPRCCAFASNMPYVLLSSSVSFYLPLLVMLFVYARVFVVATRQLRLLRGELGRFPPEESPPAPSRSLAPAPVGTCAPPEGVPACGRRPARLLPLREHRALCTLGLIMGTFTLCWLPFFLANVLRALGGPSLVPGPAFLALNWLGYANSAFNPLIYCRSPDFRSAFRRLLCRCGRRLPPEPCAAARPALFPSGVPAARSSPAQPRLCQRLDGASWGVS
Procedure: as §1

morphine dependent rats = assay: Astrocyte activation in nucleus accumbens; type: in vivo, rat
delta opioid receptor = target: T18, delta opioid receptor (Homo sapiens, UniProt P41143); assay: Secondary radioligand binding assay (affinity); details: mean±SE; read-out: Ki DOR
T18 construct: expressed in transfected cells
Procedure: (§2) The secondary binding assay was performed only when the inhibition in the primary screen was over 50%. A secondary binding assay was utilized to determine the binding affinity for the identified receptor.
(§3) 50 μL of a crude membrane fraction of cells expressing the respective receptors were applied to each well. Reaction incubation, harvesting and radioactivity measurement from the primary assay were repeated. Affinity is expressed as pKi (−log Ki).

[1] = target: T19, norepinephrine transporter (NET) (Homo sapiens, UniProt P23975); assay: Secondary radioligand binding assay (affinity); details: mean±SE
T19 construct: expressed in transfected cells
T19 sequence (P23975 whole entry): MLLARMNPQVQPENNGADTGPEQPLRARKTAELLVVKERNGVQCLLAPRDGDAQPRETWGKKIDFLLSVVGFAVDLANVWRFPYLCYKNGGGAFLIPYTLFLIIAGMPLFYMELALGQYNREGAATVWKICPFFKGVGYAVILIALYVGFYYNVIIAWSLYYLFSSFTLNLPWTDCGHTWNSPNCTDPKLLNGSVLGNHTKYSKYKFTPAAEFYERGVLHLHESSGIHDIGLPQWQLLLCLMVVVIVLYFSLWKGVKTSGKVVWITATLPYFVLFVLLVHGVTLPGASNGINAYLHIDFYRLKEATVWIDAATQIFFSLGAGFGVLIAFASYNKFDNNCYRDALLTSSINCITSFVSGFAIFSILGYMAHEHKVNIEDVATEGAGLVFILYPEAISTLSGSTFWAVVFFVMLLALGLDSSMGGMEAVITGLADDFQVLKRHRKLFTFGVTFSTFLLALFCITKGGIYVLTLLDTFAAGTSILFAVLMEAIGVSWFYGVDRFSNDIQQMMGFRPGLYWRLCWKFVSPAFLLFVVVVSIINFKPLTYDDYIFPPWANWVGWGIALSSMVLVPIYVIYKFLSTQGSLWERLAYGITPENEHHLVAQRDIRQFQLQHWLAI
Procedure: as §2, §3

[2] = target: T20, serotonin transporter (SERT) (Homo sapiens, UniProt P31645); assay: Secondary radioligand binding assay (affinity)
T20 construct: expressed in transfected cells
T20 sequence (P31645 whole entry): as the sequence (P31645 whole entry) above
Procedure: as §2, §3

[3] = test system: chronic constriction injury (CCI) rats; assay: Thermal hyperalgesia, paw withdrawal latency in CCI model; type: in vivo, rat; details: 3 mg/kg IP daily, days 1-10 after CCI, vs NS group, P<0.05
Procedure: CCI procedures on the sciatic nerve of male SD rats were performed as previously described. Briefly, after rats were anesthetized by i.p. injection of sodium pentobarbital (40 mg/kg), the right sciatic nerve of the mid-thigh level was exposed. Chromic gut 4-0 was loosely tied around the nerve for 4 ligatures with about 1 mm between knots. The ligation was performed to just barely reduce the diameter of sciatic nerve. […] In the sham group, the sciatic nerve was exposed without ligation. The incisions of rats were closed in layers. After recovery from anesthesia, rats were housed individually in the clear plastic cages with soft bedding covered with 3-6 cm of sawdust.
Same volume of normal saline (2 ml) was injected in the other two groups at the same time.
The paw withdrawal latency (PWL) to radiant heat was used to evaluate thermal hyperalgesia for nociceptive response as previously described. Rats were placed in transparent plexiglass cage (23×18×13 cm) with a piece of 3-mm-thick glass floor and received heat radiation after acclimating to the environments for 30 minutes. […] A digital timer automatically measured the duration between the starting of heat and the paw withdrawal, which was considered as the PWL. The PWL was measured in 0.1 second and a maximum of 20 seconds exposure to radiation was set to avoid injury. […]

T1 sequence (P23975 whole entry): as the sequence (P23975 whole entry) above

C[C@@]12CCCCC[C@@H](Cc3ccc(O)cc31)[C@@H]2N [Dezocine, (−)-13β-amino-5,6,7,8,9,10,11,12-octahydro-5α-methyl-5,11-methanobenxocyclodecen-31-ol, hydrobromide]
pIC50 at NET (norepinephrine reuptake) (human cloned NET): 5.68±0.11 | inhibition at 10 µM (Alpha1A): 4.9% | inhibition at 10 µM (5-HT7): 20.9% | inhibition at 10 µM (Alpha2C): -7.9% | inhibition at 10 µM (M2): 31.5% | inhibition at 10 µM (M5): 19.4% | inhibition at 10 µM (M4): 2.5% | inhibition at 10 µM (Alpha2B): 21.2% | inhibition at 10 µM (Alpha2A): 40.9% | inhibition at 10 µM (H2): 33.6% | inhibition at 10 µM (SERT): 97.7% | inhibition at 10 µM (D4): -5.1% | inhibition at 10 µM (5-HT2C): 19.8% | inhibition at 10 µM (5-HT1D): -0.4% | inhibition at 10 µM (D2): -3.8% | inhibition at 10 µM (5-HT6): 10.9% | inhibition at 10 µM (Beta3): -15% | astrocyte activation in nucleus accumbens (morphine dependent rats): significantly inhibited | Ki (delta opioid receptor): 527 ± 70 nM | pKi NET [1]: 6.00±0.10 | Ki ([2]; FIG. 12): 111 nM | pKi SERT ([2]; mean±SE): 6.96±0.08 | paw withdrawal latency (PWL) [3]: significantly improved
